Source: patent US20220152037A1, “USE OF GABAA RECEPTOR MODULATORS FOR TREATMENT OF PAIN” (NEUROCYCLE THERAPEUTIC, INC., priority 2019, published 2022)
Entries after “also recorded” stand apart in the source; their conditions may differ.

Test system: rat model of fibromyalgia pain (reserpine-induced mechanical allodynia)
Experiment: Mechanical allodynia (von Frey 50% response threshold) in reserpine-induced rat model of fibromyalgia pain
Type: in vivo
Text: The purpose of the study is to assess the efficacy of the described compounds in the rat model of fibromyalgia pain.
Animals were assigned to treatment groups based on Day 0 pre-dose von Frey 50% response thresholds so that group means of the mean paw withdrawal latencies were approximately equal. Animals were ranked by pre- and post-reserpine baseline change from lowest to highest, and treatments were assigned randomly within stratified sub-groups according to the total number of treatment groups in the study.
The animals were dosed in sequence based on animal number, so that the distribution of treatment across a given set of animals was not predictable.
Mechanical fibromyalgia-associated allodynia is measured using […] (Stoelting©; Wood Dale, Ill., USA) with varying stiffness (0.04, 0.07, 0.16, 0.4, 1.0, 4.0, and 8.0 g) according to the up-down method 1. Animals were placed in individual acrylic chambers on a metal mesh surface and allowed to acclimate to their surroundings for a minimum of 15 minutes before testing. Each filament was presented perpendicular to the plantar surface with sufficient force to cause slight buckling against the paw and held for approximately 4 seconds or until a positive response is noted (paw sharply withdrawn). Testing was initiated with the 0.4 g filament. In the absence of a paw withdrawal response, the next stronger stimulus was presented. In the event of paw withdrawal, the next weaker stimulus was used. This process was repeated until 4 responses after the initial change in response (no response to positive response or positive response to no response) were obtained. […] The 50% response threshold is calculated using the formula:
50% response threshold (g)=(10(Xf+kδ))/10,000
• Pre-Injury mechanical fibromyalgia-associated allodynia testing (vF) • Reserpine injection
• Mechanical fibromyalgia-associated allodynia testing (vF; time baseline) • Dosing (time 0 min) • Mechanical fibromyalgia-associated allodynia testing (vF; time ˜1 hour) • Mechanical fibromyalgia-associated allodynia testing (vF; time ˜2 hour) • Mechanical fibromyalgia-associated allodynia testing (vF; time ˜4 hour) • Euthanasia
Pain was induced by three daily doses of 1 mg/kg reserpine, and mechanical fibromyalgia-associated allodynia was assessed using von Frey filaments. Mechanical fibromyalgia-associated allodynia was measured prior to and the first reserpine injection and 4 days following the third injection. GABAA receptor modulators (0.3 or 3 mg/kg), pregabalin (30 mg/kg) or vehicle (0.5% methylcellulose) were administered 4 days after the last reserpine injection, with mechanical fibromyalgia-associated allodynia being assessed prior to, and at 1, 2, and 4 hours post-administration to determine the efficacy of GABAA receptor modulators in this model.

Compound | Mean Paw Response Thresholds (0.3 mg/kg PO group, Day 0, Baseline (post-reserpine, before dosing)) [g] | Mean Paw Response Thresholds (0.3 mg/kg PO group, Pre-reserpine (before dosing)) [g] | Mean Paw Response Thresholds (0.3 mg/kg PO, Day 0, 1 hr post-dosing) [g] | Mean Paw Response Thresholds (0.3 mg/kg PO, Day 0, 2 hr post-dosing) [g] | Mean Paw Response Thresholds (0.3 mg/kg PO, Day 0, 4 hr post-dosing) [g] | Mean Paw Response Thresholds (3 mg/kg PO group, Day 0, Baseline (post-reserpine, before dosing)) [g] | Mean Paw Response Thresholds (3 mg/kg PO group, Pre-reserpine (before dosing)) [g] | Mean Paw Response Thresholds (3 mg/kg PO, Day 0, 1 hr post-dosing) [g] | Mean Paw Response Thresholds (3 mg/kg PO, Day 0, 2 hr post-dosing) [g] | Mean Paw Response Thresholds (3 mg/kg PO, Day 0, 4 hr post-dosing) [g] | Mean Paw Response Thresholds (30 mg/kg PO group, Day 0, Baseline (post-reserpine, before dosing)) [g] | Mean Paw Response Thresholds (30 mg/kg PO group, Pre-reserpine (before dosing)) [g] | Reversal of reserpine-induced mechanical fibromyalgia-associated allodynia (response thresholds) (30 mg/kg PO, 1, 2 and 4 hour time points) | Mean Paw Response Thresholds (30 mg/kg PO, Day 0, 1 hr post-dosing) [g] | Mean Paw Response Thresholds (30 mg/kg PO, Day 0, 2 hr post-dosing) [g] | Mean Paw Response Thresholds (30 mg/kg PO, Day 0, 4 hr post-dosing) [g]
CC(C)(O)c1cnn2c(-c3ccc(F)c(-c4c(F)cccc4C#N)c3)cnc2n1 [Compound 1] | 3.68 | 14.50 | 6.52 | 8.36 | 7.96 | 3.82 | 14.01 | 6.08 | 7.98 | 7.54 | – | – | – | – | – | –
CC(C)C[C@H](CN)CC(=O)O [pregabalin, reference compound] | – | – | – | – | – | – | – | – | – | – | 3.84 | 14.55 | significantly increased median response thresholds at all of the time points following dosing; also recorded: significantly reversed mechanical fibromyalgia-associated allodynia | 9.34 | 10.17 | 10.23
